Data reported in US20230365577A1, “Photodynamic Therapy and Diagnosis” (RMW CHO Group Limited, priority 2020, published 2023).
Values joined by “and” are separate entries in the source; they are usually repeats but may differ in a detail not shown here. Identical values can stand only once. Like-named read-outs stand apart in the source and are kept apart here.

Experiments:
[1] = Singlet oxygen (1O2) production rate; format: physicochemical
Source text: The production of singlet oxygen (^1O2), cellular phototoxicity and light-independent cytotoxicity (“dark toxicity”) of a number of phyllochlorin analogues were compared against chlorin e4 disodium and Talaporfin sodium (mono-L-aspartyl chlorin e6), the active ingredient of Laserphyrin™.

[2] = test system: SKOV3 ovarian cancer cells; test: Phototoxicity in SKOV3 cells (652 nm laser, AlamarBlue viability); format: cell-based, Human; conditions: for IC50: SKOV3, 652 nm laser, estimated from fitted curves
Experimental: (§1) Human ovarian cancer cell line SKOV3 (ATCC #HTB-77) was maintained in Dulbecco's Modified Eagle Medium/Nutrient Mixture F-12 (DMEM/F-12), supplemented with 10% v/v Fetal Bovine Serum, 100 U/mL penicillin and 100 µg/mL streptomycin. Monolayer cultures were grown in a humidified incubator at 37° C. with 5% CO2.
(§2) For in vitro experiments, photosensitizers (stock solution 5.5 mM in 100% DMSO) were diluted in cell culture media (Dulbecco's Modified Eagle Medium/Nutrient Mixture F-12) supplemented with 10% v/v Fetal Bovine Serum, 100 U/mL penicillin, 100 µg/mL streptomycin and 10% w/v Kollidon-12. Once cells had reached ˜80% confluence, spent media was replaced with media containing photosensitizer and cells were incubated for the desired period of time to allow photosensitizer uptake.
(§3) SKOV3 cells were seeded in 96-well black wall plates (Greiner #655090) at a cell density of 5000 cells in 100 μl culture medium per well. On reaching ˜60% confluence, so media was aspirated and replaced with fresh media containing the relevant phyllochlorin analogue from 0-100 μM in DMSO. Cells were incubated for a further 24 hours, allowing uptake of phyllochlorin analogues.
(§4) To test for phototoxicity, cells incubated with phyllochlorin analogues (0-10 μM in DMSO) had culture media replaced after 24 hours (as above) and were then exposed to a 652 nm laser (Invion) with laser density at 50 mW/cm^2 for 5 mins (total 15 J/cm^2). Following activation, cells were cultured for a further 24 hours. Media was then replaced with fresh media containing AlamarBlue, and % viable cells remaining assessed as above. Controls included cells treated with phyllochlorin analogues but not activated by laser light; cells without phyllochlorin analogue treatment but with laser light; and untreated controls. All measurements were made in quadruplicate.
(§5) For comparative purposes, phyllochlorin analogues were tested and compared against both chlorin e4 disodium and Talaporfin sodium, a clinically approved photosensitizer used in the photodynamic treatment of lung cancers. Phototoxicity IC90 values and dark toxicity IC10 values were calculated using a log[inhibitor]-vs normalized response dose curve with variable slope, using the formula Y=100/(1+(IC90/X)^HillSlope (phototoxicity IC90) or Y=100/(1+(IC10/X)^HillSlope (dark toxicity IC10).

[3] = test system: SKOV3 ovarian cancer cells; test: Inherent cytotoxicity (dark toxicity) in SKOV3 cells (AlamarBlue viability); format: cell-based, Human; conditions: for Concentration at which cells remained >80% viable (dark toxicity) / Concentration at which cells retained >80% viability (dark toxicity): SKOV3, 24 hours; for Concentration at which cells remained >80% viable (dark toxicity): absence of PVP; for Concentration at which cells retained >80% viability (dark toxicity): with addition of PVP
Experimental: as §1, §2
as §3, with “confluence,” for “confluence, so”
(§6) To test for inherent cytotoxicity (i.e. “dark toxicity”) of the phyllochlorin analogue the culture media was replaced after 24 hours with fresh media containing 10% (v/v) AlamarBlue Cell Viability Reagent (ThermoFisher) and cells incubated at 37° C. for 6 hours. Untreated cells were used as a control. Fluorescence (Ex 555 nm/Em 596 nm) was measured using a Cytation 3 Multimode Plate Reader (Biotek), and cytotoxicity assessed according to the % viable cells remaining. All measurements were made in quadruplicate.
as §5

[4] = Acute toxicity after intraperitoneal injection; format: in vivo, C57BL/6 mice; conditions: 5 mg/kg intraperitoneal, 1% PVP in PBS + 20 mM HEPES, observed 30 mins
Experimental: To assess acute toxicity, phyllochlorin or chlorin e4 disodium (each prepared with 1% PVP in PBS+20 mM HEPES) were administered at a dose of 5 mg/kg to C57BL/6 mice by intraperitoneal injection.

A549 [5] = test: Phototoxicity, pan-cancer panel; format: cell-based; conditions: Homo sapiens, light or radiation study; A549, lung adenocarcinoma
Experimental: as §4
(§7) The activity of phyllochlorin analogues against multiple cancer cell types was assessed as above, using compounds 3 and 6 as examples.

CaOV3 [6] = test: Phototoxicity, pan-cancer panel; format: cell-based; conditions: Homo sapiens, Caov-3, light or radiation study; CaOV3, ovarian adenocarcinoma
Experimental: as §4, §7

DLD-1 [7] = test: Phototoxicity, pan-cancer panel; format: cell-based; conditions: Homo sapiens, light or radiation study; DLD-1, colorectal adenocarcinoma
Experimental: as §4, §7

HEK293 [8] = test: Phototoxicity, pan-cancer panel; format: cell-based; conditions: Homo sapiens, light or radiation study; HEK293, embryonic kidney
Experimental: as §4, §7

HH [9] = test: Phototoxicity, pan-cancer panel; format: cell-based; conditions: Homo sapiens, light or radiation study, T cell lymphoma
Experimental: as §4, §7

LP9 [10] = test: Phototoxicity, pan-cancer panel; format: cell-based; conditions: light or radiation study; LP9, immortalised mesothelial cells
Experimental: as §4, §7

MDA-MB-468 [11] = test: Phototoxicity, pan-cancer panel; format: cell-based; conditions: Homo sapiens, light or radiation study; MDA-MB-468, breast adenocarcinoma (triple negative)
Experimental: as §4, §7

OVCAR3 [12] = test: Phototoxicity, pan-cancer panel; format: cell-based; conditions: Homo sapiens, OVCAR-3, light or radiation study; OVCAR3, ovarian adenocarcinoma
Experimental: as §4, §7

A549 [13] = test: Cytotoxicity, pan-cancer panel; format: cell-based; conditions: A549, lung adenocarcinoma
Experimental: as §6, §7

CaOV3 [14] = test: Cytotoxicity, pan-cancer panel; format: cell-based; conditions: CaOV3, ovarian adenocarcinoma
Experimental: as §6, §7

DLD-1 [15] = test: Cytotoxicity, pan-cancer panel; format: cell-based; conditions: DLD-1, colorectal adenocarcinoma
Experimental: as §6, §7

HEK293 [16] = test: Cytotoxicity, pan-cancer panel; format: cell-based; conditions: HEK293, embryonic kidney
Experimental: as §6, §7

HH [17] = test: Cytotoxicity, pan-cancer panel; format: cell-based; conditions: T cell lymphoma
Experimental: as §6, §7

LP9 [18] = test: Cytotoxicity, pan-cancer panel; format: cell-based; conditions: LP9, immortalised mesothelial cells
Experimental: as §6, §7

MDA-MB-468 [19] = test: Cytotoxicity, pan-cancer panel; format: cell-based; conditions: MDA-MB-468, breast adenocarcinoma (triple negative)
Experimental: as §6, §7

OVCAR3 [20] = test: Cytotoxicity, pan-cancer panel; format: cell-based; conditions: OVCAR3, ovarian adenocarcinoma
Experimental: as §6, §7

[21] = Solubility and absorbance maxima (absorbance spectra in DMSO/PBS, with or without PVP); format: physicochemical
Experimental: Absorbance maxima (660±2 nm for phyllochlorin) were used as a surrogate measure of solubility. The relevant phyllochlorin analogue was diluted to 50 μM in PBS (phosphate buffered saline) solutions containing decreasing amounts of DMSO from 100% to 0%.
Where required, polyvinylpyrrolidone (K30) was added to a final concentration of 1% w/v. Absorbance was measured using a Cytation 3 Multimode Plate Reader (Biotek) in spectral scanning mode, with spectra captured between 500-800 nm in 2 nm increments. Equivalent blank solutions were also measured and subtracted accordingly. Each spectrum was normalized to have a minimum signal of 0, and a maximum signal in pure DMSO solution (the most soluble state) of 100%.
The solubility of phyllochlorin was assessed in solutions containing DMSO as an organic solvent. Phyllochlorin (50 μM final concentration) was resuspended in 100% DMSO to fully dissolve the phyllochlorin. With phyllochlorin concentrations maintained at 50 μM the % DMSO was decreased in a stepwise manner from 100% to 0%. All solutions were mixed by vortexing, then centrifuged for 2 mins to pellet any insoluble material. A 150 μl aliquot was transferred to individual wells of a 96-well clear microplate, and absorbance spectra collected between 500-800 nm in 2 nm increments. Equivalent solutions containing decreasing % DMSO were used to control for background.

[22] = Estimated pKa of the carboxylic acid; format: physicochemical
Source text: As PBS buffer (pH 7.4) is used in the experiments and the carboxylic acid in phyllochlorin (and the same carboxy group in other related chlorins) is estimated to have a pKa of less than 5, phyllochlorin in the PBS buffer will exist predominantly as the sodium and potassium salts with very little to no free acid.

[23] = SKOV3, 24 h uptake, 652 nm laser 50 mW/cm2 5 mins (15 J/cm2), viability 24 h later, read-out: Cellular Toxicity: Phototoxicity IC90
[24] = SKOV3, 24 h incubation, no light

For `C=Cc1c(C)c2cc3nc(c(C)c4[nH]c(cc5nc(cc1[nH]2)C(C)=C5CC)c(C)c4C(=O)O)[C@@H](CCC(=O)O)[C@@H]3C` [Chlorin e4 disodium, chlorin e4 disodium, reference compound], the “Singlet Oxygen Production (slope) 1O2” value [1] was 998.2, the IC50 ([2]; absence of PVP) was 4530 nM and the IC50 ([2]; with addition of PVP) was 1350 nM. The IC90 [2, 23] was 21300 nM, the “Concentration at which cells remained >80% viable (dark toxicity)” value [3] was “up to 80 μM” and the “Concentration at which cells retained >80% viability (dark toxicity)” value [3] was 100 µM. The “Cellular Toxicity: Dark toxicity IC10” value [3, 24] was 40230 nM and the “Side effects (clinical signs of acute toxicity)” value [4] was “No side effects were noted”.
In the case of `C=Cc1c(C)c2cc3nc(c(C)c4cc(C)c(cc5nc(cc1[nH]2)C(C)=C5CC)[nH]4)[C@@H](CCC(=O)NCCCS[C@@H]1O[C@H](CO)[C@@H](O)[C@H](O)[C@H]1O)[C@@H]3C` [Compound 3, 3-((7S,8S)-18-ethyl-2,5,8,12,17-pentamethyl-13-vinyl-7H,8H-porphyrin-7-yl)-N-(3-(((2S,3R,4S,5S,6R)-3,4,5-trihydroxy-6-(hydroxymethyl)tetrahydro-2H-pyran-2-yl)thio)propyl)propanamide], the “Singlet Oxygen Production (slope) 1O2” value [1] is reported as 2054.0, the IC90 ([2]; Homo sapiens, SK-OV-3, light or radiation study, SKOV3, ovarian clear cell (Table 2), read-out: Phototoxicity IC90) is reported as 110 nM and the IC90 ([2]; Homo sapiens, SK-OV-3, light or radiation study, SKOV3, 24 h uptake, 652 nm laser 50 mW/cm2 5 mins (15 J/cm2), viability 24 h later, read-out: Cellular Toxicity: Phototoxicity IC90) is reported as 80 nM. The IC90 ([2]; Homo sapiens, SK-OV-3, light or radiation study, SKOV3, read-out: Phototoxicity apparent IC90) was less than 100 nM, the “Cellular Toxicity: Dark toxicity IC10” value ([3]; human, 24 h) was 20660 nM and the “Cytotoxicity IC10” value ([3]; human, 24 h) was 20660 nM. For the same compound, the IC90 (A549 [5]) was 200 nM, the IC90 (CaOV3 [6]) was 50 nM and the IC90 (DLD-1 [7]) was 360 nM. For the same compound, the IC90 (HEK293 [8]) was 220 nM, the IC90 (HH [9]) was 110 nM and the IC90 (LP9 [10]) was 40 nM. The IC90 (MDA-MB-468 [11]) was 70 nM, the IC90 (OVCAR3 [12]) was 170 nM and the “Cytotoxicity IC10” value (A549 [13]) was 4220 nM. For the same compound, the “Cytotoxicity IC10” value (CaOV3 [14]) was 5430 nM, the “Cytotoxicity IC10” value (DLD-1 [15]) was 42280 nM and the “Cytotoxicity IC10” value (HEK293 [16]) was 8110 nM. The “Cytotoxicity IC10” value (HH [17]) was 14800 nM, the “Cytotoxicity IC10” value (LP9 [18]) was 18010 nM and the “Cytotoxicity IC10” value (MDA-MB-468 [19]) was 6000 nM. The “Cytotoxicity IC10” value (OVCAR3 [20]) was 29970 nM.
With `C=CC1=C(C)c2cc3nc(c(C)c4cc(C)c(cc5[nH]c(cc1n2)c(C)c5CC)[nH]4)[C@@H](CCC(=O)O)[C@@H]3C` [Phyllochlorin free acid, phyllochlorin free acid] the “Singlet Oxygen Production (slope) 1O2” value [1] was 1335.5, the IC50 ([2]; absence of PVP) was 63.1 nM and 60 nM and the IC50 ([2]; with addition of PVP) was 53.9 nM. The IC90 [2, 23] was 290 nM, the “Times more potent as a phototoxic agent than chlorin e4 disodium salt” value ([2]; ovarian cancer cells, head to head, without PVP) was roughly 75 times and the “Concentration at which cells remained >80% viable (dark toxicity)” value [3] was 10 µM. For the same compound, the “Concentration at which cells retained >80% viability (dark toxicity)” value [3] was “up to 25 μM”, the “Cellular Toxicity: Dark toxicity IC10” value [3, 24] was 13810 nM and the Solubility ([21]; 50 μM, 1% w/v PVP, absorbance as surrogate) was “remained soluble in aqueous solvent (without DMSO)”. For the same compound, the Absorbance maxima ([21]; aqueous solvent, single broad peak) was 688±2 nm, the Absorbance maxima ([21]; fully solubilized in organic solvent (75% DMSO and above)) was 660±2 nm and the “pKa of the carboxylic acid” value [22] was “less than 5”. For the same compound, the “Side effects (clinical signs of acute toxicity)” value [4] was “No side effects were noted”.
